Source: article PMC5741723, “Residues His172 and Lys238 are Essential for the Catalytic Activity of the Maleylacetate Reductase from Sphingobium chlorophenolicum Strain L-1” (Scientific Reports, 2017)

Legend:
[1] = target: T1, maleylacetate reductase (PcpE) (Sphingobium chlorophenolicum, UniProt F6F233); experiment: surface plasmon resonance; type: binding; conditions: PcpE immobilised by amine coupling; PBS-T, 5% DMSO, pH 7.4; n = 5
T1 construct: gene Sphch_4020; full length, 352 residues; recombinant His6-tagged, tag kept (SPR); mutants in pET30a(+) NdeI/XhoI, E. coli BL21-AI
T1 sequence (F6F233 entry or part of it): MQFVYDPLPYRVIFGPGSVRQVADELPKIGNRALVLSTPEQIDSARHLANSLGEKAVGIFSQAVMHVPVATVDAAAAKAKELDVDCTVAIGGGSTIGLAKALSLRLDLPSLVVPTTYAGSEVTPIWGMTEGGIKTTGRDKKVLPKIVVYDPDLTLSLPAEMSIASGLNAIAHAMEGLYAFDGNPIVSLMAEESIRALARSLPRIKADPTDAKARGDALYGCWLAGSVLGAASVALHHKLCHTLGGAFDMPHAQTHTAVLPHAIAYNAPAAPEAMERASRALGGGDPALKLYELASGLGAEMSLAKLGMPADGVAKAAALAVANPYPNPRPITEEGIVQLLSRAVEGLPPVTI

[2] = target: T1, maleylacetate reductase (PcpE); experiment: inhibition of MA reduction, NADH loss at […] nm; type: biochemical; conditions: 360 µM NADH, 400 µM MA, 20 mM Tris-HCl pH 7.0

## Oc1c(Cl)c(Cl)c(Cl)c(Cl)c1Cl [PCP, pentachlorophenol]
[1]
  Kd: 12.8 ± 0.2 µM
[2]
  % catalytic activity remaining at 5 μM: ~ 30%
